Assay results from patent US6602487B1, “Methods and tests for producing and for inhibiting coronary artery vasospasms” (Dimera Incorporated, priority 1997, dated 2003).
Several values for one entry are separate records, joined by “and”; a condition that tells them apart may be missing. Equal entries are not always repeated.

Assays:
[1] = system: coronary artery vascular muscle cells (VMC); experiment: Subcellular Ca2+ and PKC localization and contraction of coronary VMC stimulated with serotonin plus U46619; format: cell-based, rhesus monkeys; conditions: VMC from treated monkeys, 10 μM serotonin plus 100 nM U46619
From the text: Single VMCs from the left anterior descending, circumflex, and right coronary arteries of adult rhesus monkeys were isolated and studied both as freshly dispersed and as primary cultures. The short-term primary cultured cells (never passaged) maintain the characteristics of the source tissue for 2 3 weeks, including contraction, relaxation, receptors, and membrane electrical properties. VMCs were dissociated with collagenase and protease enzymes in a potassium glutamate solution (KG) that prevent loading with Na^+, Ca^2+, or Cl^− and results in a high proportion of viable, contracting cells (Self, D. A., et al., J. Vasc. Res. 31:359-366 (1994); Rusch., N. J., et al., Physiology and Pathophysiology of the Heart, 999-1010 (1995)). The cells prepared for culture were seeded at low density in cardiovascular culture solution for mammals, fifth generation (CV5M) on glass coverslips to facilitate selection of individual cells. VMC were used for experiments 7-14 days after attaching to coverslips.
Freshly dispersed or primary cultured VMCs on glass coverslips were placed in a chamber of laminar flow design and observed with a Zeiss Plan Neofluar 25×/0.80 water immersion objective. Ionic solution for mammals version 2 (ISM2) was continuously pumped through the chamber (at 1 ml/minute) to provide continuous equilibration and washout of drugs. After a 15 minutes equilibration period, VMC were loaded for 15 minutes at room temperature with 3 μM fluo 3 (Molecular Probes, Inc.) for sensing Ca^2− and for 10 minutes with […] hypericin (LC Laboratories) for reporting PKC. Individual VMC were stimulated by adding 20 μl of 10 μM serotonin plus 100 nM U46619 over the individual cell. After 15 seconds under no-flow conditions, continuous flow of ISM2 was reinstated and a chamber volume of approximately 300 μl was maintained. Fluorescent images were taken at 1, 2, 5, 10, 15, 20 and 30 minutes after stimulation for Ca^2+ and at 3, 4, 9, 16, 21 and 31 minutes for PKC to evaluate subcellular distribution of these signals, and to determine VMC contraction.
ISM2 contains (in mM): 100 NaCl, 4 NaHCO3, 0.5 NaH2PO4, 4.7 KCl, 1.8 CaCl2, 0.41 […], 50 HEPES (pH 7.37), and 5.5 dextrose, KG solution consists of (in mM); 140 K-glutamate, 16 NaHCO3, 0.5 NaH2PO4, 30 HEPES, and 16.5 dextrose at pH 7.3. CVSM consists of. 4.0 mM L-glutamine, 10 μg/ml ciprofloxacin (Miles Pentex/Bayer Corporation), 50 mM HEPES (pH 7.3), and 16 mM NaHCO3 dissolved in 85% MEM-Earle's'salts and 15% horse serum. Phenol red, known to have estrogenic activity, was omitted from all solutions.
As discussed above, the monkeys were implanted with subdermal sylastic tubing containing estrogen (E) progesterone (P) or MPA. The first step in each of the three groups was to implant sylastic tubing containing E. Two weeks later, either P or MPA were additionally implanted and maintained for another 4 weeks (6 weeks total). In the withdrawal (W) group, the E tube was withdrawn, and no tubes were implanted for the last 4 weeks.

[2] = Progesterone serum levels after topical ProGest cream in menopausal or postmenopausal women; format: in vivo, human; conditions: topical ProGest cream 2 ml, per patient
Procedure: An open label, controlled study was carried out in six healthy menopausal or postmenopausal women using no over-the-counter or prescription medications, medical foods or dietary supplements which would influence progesterone levels. Menopausal or postmenopausal status was determined by clinical methods. The inclusion criteria were low estrogen levels (less than or equal to 25 picograms per ml); non-use of progesterone for two weeks prior to the beginning of the study, and four weeks if medroxyprogesterone acetate was used; a body mass index less than 30; age between 40 and 65; non-smoker; at least six months after menopause (last bleeding); normal mammogram and pap smear within the past year; and reasonable reliability and client compliance. […] The cream was to be applied in 2 ml amounts on calendar days 2-15 at 8 a.m. Applications were increased to a second 2 ml application at 8 p.m. on calendar days 16-30. In addition, estrogen was applied as a […] patch. The patch used was Vivelle®, Ciba (now Novartis), Summit, N.J. The Vivelle® patch (0.05 mg/day) was applied on calendar days 0, 3, 7, 10, 14, 17, 21, 24 and 28.
Estrogen and progesterone serum levels were determined by chemiluminescence and were conducted on calendar days 2, 9, 16, 23, and 30 at times indicated.

[3] = vaginal administration; cited from earlier work

Progesterone Levels ([2]; Week 0, 1/2 H): 1.6 Nanograms/ml
Progesterone Levels ([2]; Week 0, 1 H): 3.1 Nanograms/ml
Progesterone Levels ([2]; Week 0, 2 H): 2.8 Nanograms/ml
Progesterone Levels ([2]; Week 0, 3 H): 3.5 Nanograms/ml
Progesterone Levels ([2]; Week 0, 4 H): 3.3 Nanograms/ml
Progesterone Levels ([2]; Week 0, 6 H): 4.6 Nanograms/ml
Progesterone Levels ([2]; Week 0, 12 H): 2.4 Nanograms/ml
Progesterone Levels ([2]; Week 2, 1 H, listed as progesterone): 14.1 Nanograms/ml
concentration at 1 h ([2]; female, human, topical, Week 1, 1 H): 1 ng/mL
concentration ([2]; female, human, topical, Week 1, 3 H): 1 ng/mL
SMILES: CC(=O)[C@H]1CC[C@H]2[C@@H]3CCC4=CC(=O)CC[C@]4(C)[C@H]3CC[C@]12C [P, progesterone]
whole cell Ca2+ (fluo 3) fluorescence after stimulation ([1]; FIG. 3): increased significantly over control only at 1 minute
peripheral-to-central Ca2+ ratio after stimulation ([1]; FIG. 4): too small to be significant
PKC signal after stimulation ([1]; FIG. 5): failed to change PKC loci or intensity significantly from control values
peripheral-to-central PKC ratio after stimulation ([1]; FIG. 6): never significantly different from control
VMC contractions (cell width) after stimulation ([1]; FIG. 7): significantly different from 0-min controls only at 3 and 4 minutes
Progesterone Levels ([2]; Week 1, 0 H): 0.43 Nanograms/ml (2×) and 0.4 Nanograms/ml and 1.5 Nanograms/ml and 1.6 Nanograms/ml and 1.9 Nanograms/ml
Progesterone Levels ([2]; Week 1, 1 H (first of two columns headed 1 H), listed as Progesterone): 1.0 Nanograms/ml and 1.5 Nanograms/ml and 1.3 Nanograms/ml and 1.6 Nanograms/ml and 2.0 Nanograms/ml
Progesterone Levels ([2]; Week 1, 1 H (second of two columns headed 1 H), listed as Progesterone): 0.84 Nanograms/ml and 1.0 Nanograms/ml and 1.4 Nanograms/ml and 1.1 Nanograms/ml and 1.3 Nanograms/ml and 2.7 Nanograms/ml
Progesterone Levels ([2]; Week 1, 2 H): 0.49 Nanograms/ml and 0.82 Nanograms/ml and 0.57 Nanograms/ml and 1.0 Nanograms/ml and 1.2 Nanograms/ml and 1.4 Nanograms/ml
Progesterone Levels ([2]; Week 1, 3 H): 0.91 Nanograms/ml and 0.94 Nanograms/ml and 1.2 Nanograms/ml and 1.7 Nanograms/ml and 1.6 Nanograms/ml
Progesterone Levels ([2]; Week 1, 4 H): 0.96 Nanograms/ml and 1.0 Nanograms/ml and 1.1 Nanograms/ml (2×) and 1.3 Nanograms/ml and 2.3 Nanograms/ml
Progesterone Levels ([2]; Week 1, 6 H): 0.98 Nanograms/ml and 1.3 Nanograms/ml (2×) and 2.0 Nanograms/ml and 1.6 Nanograms/ml (2×)
Progesterone Levels ([2]; Week 1, 12 H): 0.87 Nanograms/ml and 0.96 Nanograms/ml and 1.3 Nanograms/ml and 1.6 Nanograms/ml and 1.8 Nanograms/ml and 2.0 Nanograms/ml
Progesterone Levels ([2]; Week 2, 0 H): 0.93 Nanograms/ml and 1.2 Nanograms/ml and 0.96 Nanograms/ml and 2 Nanograms/ml and 1.7 Nanograms/ml and 3.3 Nanograms/ml
Progesterone Levels ([2]; Week 2, 1 H, listed as Progesterone): 0.82 Nanograms/ml and 0.94 Nanograms/ml and 1.2 Nanograms/ml and 1.3 Nanograms/ml and 14.1 Nanograms/ml and 2.4 Nanograms/ml
Progesterone Levels ([2]; Week 2, 2 H): 1 Nanograms/ml and 0.81 Nanograms/ml and 1.2 Nanograms/ml and 1.7 Nanograms/ml and 3.3 Nanograms/ml and 2.9 Nanograms/ml
Progesterone Levels ([2]; Week 2, 4 H): 1.1 Nanograms/ml and 1.5 Nanograms/ml and 1.2 Nanograms/ml and 2.4 Nanograms/ml and 5 Nanograms/ml and 1.8 Nanograms/ml
Progesterone Levels ([2]; Week 2, 6 H): 1 Nanograms/ml and 1.3 Nanograms/ml and 1.2 Nanograms/ml and 1.5 Nanograms/ml and 3.2 Nanograms/ml and 2.9 Nanograms/ml
Progesterone Levels ([2]; Week 2, 8 H): 0.94 Nanograms/ml and 0.83 Nanograms/ml and 1.2 Nanograms/ml and 1.1 Nanograms/ml and 3 Nanograms/ml and 2.2 Nanograms/ml
Progesterone Levels ([2]; Week 2, 12 H): 0.84 Nanograms/ml and 0.94 Nanograms/ml and 1.2 Nanograms/ml and 2.8 Nanograms/ml and 3.1 Nanograms/ml
Progesterone Levels ([2]; Week 2, 24 H): 0.81 Nanograms/ml and 2 Nanograms/ml and 1.1 Nanograms/ml and 0.98 Nanograms/ml and 2.1 Nanograms/ml
local concentration of progesterone in the endometrial tissue [3]: ~7 nanograms/ml
